{"source": "patent US20220313702A1", "about": "“OXATHIAZIN COMPOUNDS FOR INHIBITING GAPDH” (Geistlich Pharma AG, priority 2019, published 2022)", "key": {"[1]": {"test_system": "PancTul pancreatic cancer cell line", "experiment": "fluorescent ROS detection assay, PancTul", "format": "cell-based", "description": "(§1) FIG. 2: Formation of ROS: The effect of treatment with the indicated concentrations of GP-2250 on the formation of ROS was tested in two pancreatic cancer cell lines a) PancTul and b) BxPC3, using a fluorescent ROS detection assay (ROS/Superoxide Detection Assay Kit, Abcam (ab139476)) following incubation with GP-2250 for 90 min at 37° C. Negative controls (NC+NAC) contained the ROS inhibitor which is part of the Assay Kit plus N-acetylcysteine (NAC; 5 mM). Untreated control (U). Data are presented as mean+/−S.D. Significance levels calculated in comparison to untreated controls (U). * p<0.05, ** p<0.01, *** p<0.001.\n(§2) The effects of treatment with various concentrations of GP-2250 on the formation of ROS was tested in two pancreatic cancer cell lines a) PancTul and b) BxPC3 as shown in FIG. 2. […] The BxPC3 cell line was more sensitive to forming ROS than Panc Tul. The rather high concentrations of GP-2250 which are required for the formation of ROS (equal or higher than 500 uM) are most likely due to the short incubation time of 90 minutes in this cellular assay. A higher potency of GP-2250 would be expected at longer incubation times.\n(§3) Untreated control (U). Data are presented as mean+/−S.D. Significance levels calculated in comparison to untreated controls (U). * p<0.05, ** p<0.01, *** p<0.001."}, "[2]": {"test_system": "BxPC3 pancreatic cancer cell line", "experiment": "fluorescent ROS detection assay, BxPC3", "format": "cell-based", "description": "as §1, §2, §3"}, "[3]": {"test_system": "Chemotherapy-resistant stem cells from advanced Stage 3 and 4 pancreatic cancer human patients", "experiment": "chemotherapy-resistant stem cells from pancreatic cancer patients", "format": "cell-based", "details": "several concentrations"}, "[4]": {"molecular_target": "recombinant GAPDH (rGAPDH) (Homo sapiens, UniProt P04406)", "sequence (P04406 whole entry)": "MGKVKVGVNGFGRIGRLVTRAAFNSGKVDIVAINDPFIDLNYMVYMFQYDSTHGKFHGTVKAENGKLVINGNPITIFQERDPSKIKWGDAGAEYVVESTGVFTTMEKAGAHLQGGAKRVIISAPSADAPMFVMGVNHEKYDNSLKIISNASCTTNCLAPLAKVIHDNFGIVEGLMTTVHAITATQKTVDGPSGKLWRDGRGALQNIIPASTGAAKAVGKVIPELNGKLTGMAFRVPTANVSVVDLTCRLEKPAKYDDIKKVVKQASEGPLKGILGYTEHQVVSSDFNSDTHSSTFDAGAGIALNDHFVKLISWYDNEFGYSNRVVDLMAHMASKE", "experiment": "Glyceraldehyde-3-phosphate Dehydrogenase Activity Assay Kit with recombinant GAPDH", "format": "biochemical", "description": "FIG. 1: Inhibition of GAPDH enzyme activity: Effect of treatment with GP-2250 (100 uM and 250 uM) on the activity of recombinant GAPDH (rGAPDH) was tested with the Glyceraldehyde-3-phosphate Dehydrogenase Activity Assay Kit (Abcam ab204732) following incubation for up to 60 min at 37° C. The rGAPDH activity is inhibited dose- and time-dependently by 100 uM and 250 uM GP-2250 up to 40% compared to the untreated control. […] The GP-2250 curves are the measured data, not normalized to controls. Data are presented as mean+/−S.D.\nThe incubation time may be critical as it is a cell-free assay. Specific doses required for a half-maximal or full inhibition of GAPDH are tested in vitro and in vivo in rodents. These in vitro and in vivo data provide a target-related measure of the dose required to inhibit the GAPDH in tissue, e.g., cancer tissue, to various degrees, which is a more direct measure of the impact of the compounds of the present disclosure in contrast to cellular assays such as induction of apoptosis or ROS production.\nGAPDH is the rate limiting glycolytic enzyme in cells operating under conditions of aerobic glycolysis, such as tumor cells. Partial inhibition is therefore expected to impair the energy metabolism of tumor cells. This is in contrast to normal cells. […] The GP-2250 curves are the measured data, not normalized to controls. […]"}, "[5]": {"test_system": "PancTul pancreatic cancer cell line", "experiment": "test of secondary resistance, PancTul", "format": "cell-based", "details": "6 weekly treatment cycles, BrdU assay", "excerpt": "FIG. 9: Test of secondary resistance.\nGemcitabine was used as comparator drug."}, "PancTul cell line [6]": {"test_system": "PancTul cell line", "experiment": "ATP luminescent detection kit, PancTul", "format": "cell-based", "description": "(§4) FIG. 3: Decrease of ATP in PancTul cell line: Effect of treatment with the indicated concentrations of GP-2250 on the amount of ATP (dark column) in comparison to the cell viability (light column) after a) 3 h, b) 6 h and c) 24 h incubation at 37° C. The strong decrease of ATP reflects the impairment of the energy metabolism by GP-2250. The decrease of ATP precedes the decrease in cell viability and is therefore not caused by the impairment of cell viability. ATP was measured with a luminescent detection kit (Abcam ab113849), cell viability with the MTT test (Sigma M5655). Data are given as % change versus untreated control (NC), presented as mean+/−S.D. Significance levels in comparison to NC. * p<0.05, ** p<0.01, ***p<0.001.\n(§5) The level of ATP in a tumor cell is taken as a measure of the impact of GP-2250 on its energy metabolism. […] The decrease of ATP is already apparent after 3 h with PancTul and at 6 h with the less sensitive BxPC3 at 250 uM. It is this concentration which causes partial inhibition of GAPD (FIG. 1) and thereby links GAPD inhibition to the decrease of ATP, which in itself is a sufficient signal for the induction of apoptosis. […]\n(§6) The strong decrease of ATP reflects the impairment of the energy metabolism by GP-2250. […] ATP was measured with a luminescent detection kit (Abcam ab113849), cell viability with the MTT test (Sigma M5655). […]"}, "PancTul cell line [7]": {"test_system": "PancTul cell line", "experiment": "cell viability MTT test, PancTul", "format": "cell-based", "description": "as §4\n(§7) The strong decrease of ATP reflects the impairment of the energy metabolism by GP-2250. The decrease of ATP precedes the decrease in cell viability and is therefore not caused by the impairment of cell viability. ATP was measured with a luminescent detection kit (Abcam ab113849), cell viability with the MTT test (Sigma M5655). Data are given as % change versus untreated control (NC), presented as mean+/−S.D. Significance levels in comparison to NC. * p<0.05, ** p<0.01, ***p<0.001."}, "Bax": {"test_system": "Bax", "experiment": "Western blot of Bax expression in PancTul cells", "format": "cell-based", "details": "200 μM, 0 h, 6 h, 12 h and 24 h, α-tubulin as control", "description": "(§8) FIG. 5: Regulation of oncoproteins Bax and Bcl-2 expression: Effect of treatment with 200 μM GP-2250 for 0 h, 6 h, 12 h and 24 h on the expression of the oncoproteins a) Bax and b) Bcl-2 was tested in PancTul cells by Western blots with α-tubulin as control. The expression of the pro-apoptotic protein Bax was increased whereas the expression of the anti-apoptotic Bcl-2 was decreased over time of incubation with GP-2250.\n(§9) Apoptotic pathways are triggered by a decrease of ATP or an increase of ROS. They result in a shift of the equilibrium between the pro-apoptotic (death) protein Bax and the anti-apoptotic (survival) protein Bcl-2. The mitochondria are destabilized and the apoptotic caspase cascade finalizes the apoptotic cell suicide. GP-2250 (200 μM) increased the expression of Bax and decrease the expression of BCl-2 with increasing incubation times as shown in the Western blots (FIG. 5). […] In addition, the concentration of GP-2250 which is sufficient to change the Bax/Bcl-2 ratio (200 uM) corresponds to that for partial GAPDH inhibition (250 uM) (FIG. 1). This finding links GAPDH inhibition to the induction of apoptosis.\n(§10) The expression of the pro-apoptotic protein Bax was increased whereas the expression of the anti-apoptotic Bcl-2 was decreased over time of incubation with GP-2250."}, "[8]": {"test_system": "Bo80 pancreatic primary cancer cell line", "experimental": "(§11) Controls corresponded to cells cultured for 8 weeks without drug treatment (dark columns).\n(§12) Secondary resistance to 2250 was tested to imitate the repetitive bolus administration of the drug over a period of up to 8 weeks. Gemcitabine was used as comparator drug. A potential secondary resistance was expected to manifest itself in a decreased ability of either drug to impair cell viability. The study was performed with 3 pancreatic tumor cell lines, AsPC-1, PancTul and Bo80, the latter being a primary cell line derived from a pancreatic cancer patient. The cells were treated once a week for 24 hours with 2250 or gemcitabine at a dose which destroyed 80-90% of the cells. Subsequently, the media were exchanged and the cells were allowed to regrow in the absence of drug for 6 days.\n(§13) This weekly treatment cycle of cell killing and regrowth was repeated for both drugs for 4 weeks, 6 weeks and 8 weeks. Untreated cultures of 4, 6 and 8 weeks were used as controls. Cell viability was tested with the BrdU assay or the MTT assay at 2 hour, 24 hour, and 6 days in every treatment cycle for 4, 6 and 8 weeks."}, "BxPC3 cell line [9]": {"test_system": "BxPC3 cell line", "experiment": "ATP luminescent detection kit, BxPC3", "format": "cell-based", "description": "as §4, with “4:” for “3:”, “BxPC3” for “PancTul”\nas §5, §6"}, "[10]": {"test_system": "primary cell line derived from human pancreatic cancer (Bo80)", "experiment": "cell viability MTT assay, Bo80 primary pancreatic cancer cells", "format": "cell-based", "details": "24 h at 37° C.", "description": "FIG. 6: Synergy between GP-2250 and Gemcitabine: Cell viability was tested in a primary cell line derived from human pancreatic cancer (Bo80). […] When combined, a striking synergy was observed. The number of viable cells was reduced by 70-75%. Cell viability was tested colorimetically using the MTT assay. […] Reduction of chemotherapy drug-related toxicity can be achieved in vitro using the combinations with GP-2250 while maintaining high efficacy. The combination of GP-2250 with gemcitabine was therefore tested in mouse models of patient-derived xenografts to assess the therapeutic potential of this drug combination in vivo (see FIGS. 12-15; FIG. 18). […] When combined, a striking synergy was observed. The number of viable cells was reduced by 70-75%. Cell viability was tested colorimetically using the MTT assay."}, "[11]": {"test_system": "neuroendocrine cell line QGP-1", "experimental": "(§14) Neuroendocrine tumors were tested in vitro using the neuroendocrine cell line QGP-1 and in vivo using mouse models with a QGP-1 cell xenograft and a Bo99 patient-derived pancreatic cancer tissue graft."}, "Bcl-2": {"test_system": "Bcl-2", "experiment": "Western blot of Bcl-2 expression in PancTul cells", "format": "cell-based", "details": "200 μM, 0 h, 6 h, 12 h and 24 h, α-tubulin as control", "description": "as §8, §9, §10"}, "BxPC3 cell line [12]": {"test_system": "BxPC3 cell line", "experiment": "cell viability MTT test, BxPC3", "format": "cell-based", "description": "as §4, with “4:” for “3:”, “BxPC3” for “PancTul”\nas §7"}, "[13]": {"test_system": "AsPC-1 pancreatic cancer cell line", "experimental": "(§15) Following 4 weekly cycles of cytotoxic treatment and regrowth (see text), the cytotoxic potency of GP-2250 (FIG. 8A) and of gemcitabine (FIG. 8B) was tested with the BrdU and MTT assay respectively in the AsPC-1 pancreatic cancer cell line (light columns). Controls corresponded to cells cultured for 4 weeks without drug treatment (dark columns).\nas §12, §13"}, "[14]": {"test_system": "Bo80 pancreatic primary cancer cell line", "experiment": "test of secondary resistance, Bo80", "details": "Bo80, 8 weekly treatment cycles, BrdU assay, vs untreated 8-week cultures", "experimental": "as §11, §12, §13"}, "[15]": {"test_system": "neuroendocrine cell line QGP-1", "experiment": "QGP-1 tumor cell viability in vitro", "experimental": "as §14"}, "[16]": {"test_system": "AsPC-1 pancreatic cancer cell line", "experiment": "test of secondary resistance, AsPC-1", "details": "AsPC-1, 4 weekly treatment cycles, MTT assay, vs untreated 4-week cultures", "experimental": "as §15, §12, §13"}, "GAPDH": {"molecular_target": "GAPDH (Homo sapiens, UniProt P04406)", "sequence (P04406 whole entry)": "as above", "experiment": "interactions with GAPDH (covalent labeling)", "format": "biochemical", "description": "Various oxathiazine-like compounds of the present disclosure are synthesized and are assayed for interactions with GAPDH. Isethionic acid amide and methylene glycol were identified as hydrolytic products. A reactive transient reactive intermediate is isethionic acid hydroxymethylamide. […] The covalently labeled enzyme is purified and reactive intermediates are identified using various analytical methods including mass spectrometry of the labeled peptide is elucidated."}}, "note": "Like-named read-outs stand apart in the source and are kept apart here.", "data": [{"smiles": "O=S1(=O)CCOCN1", "note": "[GP-2250, Tetrahydro1,4,5-oxathiazin-4-dioxide]", "values": [{"measurement": "increase of ROS", "setting": "[1]; 90 min at 37° C.", "value": "concentration dependent"}, {"measurement": "concentrations required for the formation of ROS", "setting": "[1]; incubation time of 90 minutes", "value": "≥ 500", "unit": "µM"}, {"measurement": "increase of ROS", "setting": "[2]; BxPC3, 90 min at 37° C.", "value": "concentration dependent"}, {"measurement": "concentrations required for the formation of ROS", "setting": "[2]; BxPC3, incubation time of 90 minutes", "value": "≥ 500", "unit": "µM"}, {"measurement": "effect on chemotherapy-resistant stem cells", "setting": "[3]", "value": "some effect at higher concentrations"}, {"measurement": "inhibition of rGAPDH activity", "setting": "[4]; 100 uM and 250 uM GP-2250, incubation up to 60 min at 37° C., compared to untreated control, dose- and time-dependent", "value": "up to 40%"}, {"measurement": "inhibition of recombinant GAPDH", "setting": "[4]; cell-free assay", "value": "directly inhibited"}, {"measurement": "cytotoxic potency after repeated treatment (secondary resistance)", "setting": "[5]", "value": "remained unchanged"}, {"measurement": "incubation time at which decrease of ATP is apparent", "setting": "PancTul cell line [6]; 250 uM", "value": 3, "unit": "h"}, {"measurement": "ATP amount", "setting": "PancTul cell line [6]; 3 h, 6 h, 24 h at 37° C.", "value": "decreases depending on the concentration of GP-2250 and the incubation time"}, {"measurement": "impairment of cell viability (MTT) relative to ATP decrease", "setting": "PancTul cell line [7]", "value": "required higher concentrations than those required to decrease ATP"}, {"measurement": "expression of Bax", "setting": "Bax", "value": "increased"}, {"measurement": "cytotoxic potency after repeated treatment (secondary resistance)", "setting": "[8]", "value": "remained unchanged"}, {"measurement": "incubation time at which decrease of ATP is apparent", "setting": "BxPC3 cell line [9]; BxPC3, 250 uM", "value": 6, "unit": "h"}, {"measurement": "ATP amount", "setting": "BxPC3 cell line [9]; BxPC3, 3 h, 6 h, 24 h at 37° C.", "value": "decreases depending on the concentration of GP-2250 and the incubation time"}, {"measurement": "cell viability, drug alone", "setting": "[10]; GP-2250 200 uM", "value": "inactive per se"}, {"measurement": "cytotoxic effect in QGP-1 cells, monotherapy", "setting": "[11]", "value": "concentration-dependent cytotoxic effect"}, {"measurement": "expression of Bcl-2", "setting": "Bcl-2", "value": "decreased"}, {"measurement": "impairment of cell viability (MTT) relative to ATP decrease", "setting": "BxPC3 cell line [12]", "value": "required higher concentrations than those required to decrease ATP"}, {"measurement": "cytotoxic potency after repeated treatment (secondary resistance)", "setting": "[13]", "value": "remained unchanged"}]}, {"smiles": "Nc1ccn([C@@H]2O[C@H](CO)[C@@H](O)C2(F)F)c(=O)n1", "note": "[gemcitabine]", "values": [{"measurement": "cytotoxic potency after repeated treatment (secondary resistance)", "setting": "[14]", "value": "reduced cytotoxic potency"}, {"measurement": "cytotoxic effect in QGP-1 cells, monotherapy", "setting": "[15]", "value": "concentration-dependent cytotoxic effect"}, {"measurement": "effect on chemotherapy-resistant stem cells", "setting": "[3]", "value": "minimal effect at all tested concentrations"}, {"measurement": "cytotoxic potency after repeated treatment (secondary resistance)", "setting": "[16]", "value": "reduced cytotoxic potency"}, {"measurement": "cell viability, drug alone", "setting": "[10]; Gemcitabine 100 uM or 1000 uM", "value": "inactive per se"}]}, {"smiles": "O=S(=O)(CCO)NCO", "note": "[isethionic acid hydroxymethylamide]", "values": [{"measurement": "interaction with the reactive cysteine-SH in the active center of GAPDH", "setting": "GAPDH", "value": "inactivates the enzyme"}]}]}
